Results as given in patent EP0556720B1, “5-Aminoflavone derivatives” (KYOWA HAKKO KOGYO CO., LTD., priority 1992, dated 1993).
Converted amounts (≈) assume the structure as drawn.

Assays:
[1] = tested on: HeLaS3 cells; assay: Human uterine cervix carcinoma (HeLaS3) growth inhibition test, neutral red staining; type: cell-based; details: HeLa S3, 72 hours culture with sample, absorbance at 550 nm
Protocol: Human uterine cervix carcinoma (HeLaS3) growth inhibition test;
Each 0.1 ml of HeLaS3 cells which had been prepared to 3 x 10^4/ml using a medium (referred to as Medium A hereinafter) consisted of MEM medium, 2 mM glutamine and 10% bovine fetal serum was distributed in each well of 96 well-microtiter plate. The plate was cultured at 37 °C for 20 hours in a CO2 gas incubator, each 0.05 ml of samples (test compounds) which had been appropriately diluted with Medium A was added thereto and the mixture was cultured at 37 °C for 72 hours in a CO2 gas incubator. Supernatant was removed, each 0.1 ml of Medium A containing 0.02% neutral red was added to the residue, the mixture was cultured at 37 °C for 1 hour in a CO2 gas incubator and the cells were stained. Supernatant was removed and the residue was washed once with saline. Then, the pigment was extracted with 0.001N hydrochloric acid/30% ethanol and the absorbance at 550 nm was measured with a microplatereader.

[2] = tested on: estrogen dependent human mammary cancer MCF-7; assay: Antitumor effects against estrogen dependent human mammary cancer MCF-7 transplanted subcutaneously in nude mice; type: in vivo, female BALB/C-nu/nu mice; details: orally, five days per week for four weeks, ratio of V/V0 of treated group to control group
Protocol: Antitumor effects against estrogen dependent human mammary cancer MCF-7
Tumor strips (2mm x 2 mm x 2mm) of human hormone dependent mammary cancer MCF-7 were transplanted subcutaneously in the ventral part of female BALB/C-nu/nu mice (Nihon Crea), 7-9 weeks age. For promoting the growth of tumor, 12.5 µg of estradiol was intramuscularlly administered three times in the femoral region on the date of transplantation and 7 and 14 days after transplantation. 7 Days after transplantation, mice the tumor volume of which increased to 10-100 mm^3 were selected, and test compounds were orally administered repeatedly for five days per a week, for four weeks, at five animals per group. Length and breadth of the tumor were determined, and the tumor volumes were calculated by means of ellipsoid approximation according to the following equation: (Tumor volume […]= {Length (mm) x [Breadth (mm)])^2 }/2 [formula]
The tumor volume (V0) at initial administration was determined. The tumor volume (V) was determined after initiation to calculate V/V0 from which the ratio (T/C), that is, the ratio of V/V0 value of treated group relative to that of control group was obtained.

[3] = tested on: Bacillus subtilis #10107; assay: Antibacterial activity, minimum inhibition concentration by agar dilution method; type: cell-based; details: agar dilution method at pH 7.0
Protocol: Antibacterial activity of the compound (I) against Bacillus subtilis #10107 [Minimum Inhibition Concentration (MIC; µg/ml)] is shown in Table 2. Minimum Inhibition Concentration was determined by agar dilution method at pH 7.0.

[4] = tested on: MCF-7 cells; assay: Human mammary cancer (MCF-7) growth inhibition test, neutral red staining; type: cell-based; details: MCF7, medium with 10^-8M estradiol, 72 hours culture with sample
Protocol: Human mammary cancer (MCF-7) growth inhibition test;
Each 0.1 ml of MCF-7 cells which had been prepared to 5 x 10^4/ml using a medium (referred to as Medium B hereinafter) prepared by adding 10% bovine fetal serum, 10^-8M estradiol (manufactured by Sigma), 100 units/ml penicillin and 100 µg/ml streptomycin to medium RPMI1640 was distributed in each well of 96 well-microtiter plate. The plate was cultured at 37 °C for 20 hours in a CO2 gas incubator, each 0.05 ml of samples (test compounds) which had been appropriately diluted with Medium B was added thereto and the mixture was cultured at 37 °C for 72 hours in a CO2 gas incubator. Supernatant was removed, each 0.1 ml of Medium B containing 0.02% neutral red was added to the residue, the mixture was cultured at 37 °C for 1 hour in a CO2 gas incubator and the cells were stained. IC50 was calculated according to the same manner as that in Test 2.

Nc1ccc(-c2cc(=O)c3c(N)c(F)cc(F)c3o2)cc1 [Compound 12, 5-Amino-2-(4-aminophenyl)-6,8-difluoro-4H-1-benzopyran-4-one]
IC50 [1]: 10 µM | T/C ([2]; Dose 6.3 mg/kg, Date 22): 0.45

NCCCNc1ccc(-c2cc(=O)c3c(N)c(F)ccc3o2)cc1 [Compound 16, 5-Amino-2-[4-[(3-aminopropyl)amino]phenyl]-6-fluoro-4H-1-benzopyran-4-one]
MIC [3]: 5.2 µg/mL (≈ 15.9 µM) | IC50 [1]: 5.8 µM

NCCCNc1ccc(-c2cc(=O)c3c(N)c(F)cc(F)c3o2)cc1 [Compound 24, 5-Amino-2-[4-[(3-aminopropyl)amino]phenyl]-6,8-difluoro-4H-1-benzopyran-4-one]
MIC [3]: 2.6 µg/mL (≈ 7.53 µM) | IC50 [1]: 3.4 µM

Nc1ccc(-c2cc(=O)c3c(N)c(F)cc(F)c3o2)cc1F [Compound 26, 5-Amino-2-(4-amino-3-fluorophenyl)-6,8-difluoro-4H-1-benzopyran-4-one]
IC50 [1]: 26 µM | T/C ([2]; Dose 25 mg/kg, Date 29): 0.45

CCCCCCNc1c(F)cc(F)c2oc(-c3ccc(NCC(=O)OCC)c(F)c3)cc(=O)c12 [Compound 74, 6,8-Difluoro-2-(4-ethoxycarbonylmethylamino-3-fluorophenyl)-5-hexylamino-4H-1-benzopyran-4-one]
IC50 [1]: 12 µM | IC50 [4]: 9.2 µM
